Laboratory results reported in patent US20250320462A1, “METHODS AND APPARATUSES FOR TESTING HEPATOCYTE TOXICITY USING MICROORGANOSPHERES” (XILIS, INC., priority 2022, published 2025).
Read-outs that look alike come from different tables or passages of the source.

Experiments:
HepatoMOS (PHHs) = assay: HepatoMOS-based DILI assay (CTG viability, live/dead staining); type: cell-based, human; settings: for sensitivity of HepatoMOS-based versus spheroid-based DILI assay: indicated by lower IC50 values and large safety margins; for IC50: Homo sapiens
Description: Frozen human hepatocytes from Lonza were plated at 30,000 cells per well and allowed to establish in plating media. On day 2 plating media was removed and replaced with maintenance media and cultured for 1 day. On the third day, media was replaced with treatment media and the cells were treated for 72 hours. Prior to harvest HepatoMOSs were treated with CTG reagent to monitor viability.
100 cells/droplet was used in this experiment, the cell viabilities were determined by Celltiter Glo 3D.
(§1) Cell viability assay: The cell viabilities of PHHs in 2D monolayer culture or HepatoMOS culture were measured by CellTiter-Glo® 3D Cell Viability Assay (Promega). For the HepatoMOS viability measurement, we also applied the combination of Calcein AM and EtH staining in addition to CTG assay as previously reported.
(§2) DILI assessment in 2D PHHs and HepatoMOS: For the DILI assessment in the 2D monolayer of PHH cultures, PHHs were seeded at the cell density of 20,000 live cells/well in the collagen-coated 96-well plates. After 24h of culturing, the PHHs were exposed to DILI compounds at different concentrations. The cell viabilities of PHHs were then measured by using CTG assay and the DILI effects were assessed by the changes of CTG reading. For the DILI assessment in HepatoMOS culture, the HepatoMOS were encapsulated at 100 cells/droplet and cultured at HCM or InSphero media for 4 days. Then the HepatoMOS were dispensed into 96 well plates and followed by the drug treatment.

3D Hepatocyte Spheroid = settings: values above 199 show no toxicity; read-out: 3D Hepatocyte Spheroid pIC50 (converted); cited from earlier work
HepG2 = settings: values above 199 show no toxicity; read-out: Typical 2D HepG2 Monolayer Cell Health IC50; cited from earlier work
tumor MOSs = assay: Drug screen on MOSs generated from a patient tumor biopsy; type: cell-based
Description: (§3) In a similar set of experiments, MOSs were generated from biopsy material (FIG. 23A), and a drug effect screen was performed using the resulting MOSs. […] Thus, the MOSs correlated strongly with patient response to the standard of care drugs. In this case, the patient endured six months of side effects and toxicities that may have been avoided by the predicted response from the MOSs, indicating (within 7-10 days from the biopsy) that the tumor would not respond to these drugs.
In this example, a drug screen using the Patient-Derived MOSs was run by dosing a plurality of replicates for each of a plurality of (27) drugs. A single tumor biopsy was used to generate a plurality of MOSs in large quantities extremely fast (e.g., within less than two weeks) and these MOSs were tested against the panel of drug formulations (e.g., 27 formulations are shown). This testing was done in parallel and could be automatically quantified (e.g., by optical detection and quantification).

tumor = assay: Actual patient tumor response to treatment; settings: in vivo
Description: as §3

traditional cell line = assay: Traditional cell line drug screen; type: cell-based; settings: all dose ranges examined
Description: As mentioned above, the MOSs and methods of using them to screen for drug compositions may be used to accurately predict the response of a patient tumor to one or more drug therapies. […] For example, in FIG. 22A-22D, the MOSs, but not a cell line, was able to correlate with patient response.

mouse liver MOSs = assay: Toxicity assay using mouse liver MOSs; type: cell-based; settings: 10 mM
human liver MOSs = assay: Toxicity assay using human liver MOSs; type: cell-based; settings: 10 mM
Description: Similarly, FIGS. 34A-34B also show toxicity assays using human liver MOSs.

[1] = system: 2D monolayer of PHH cultures; assay: 2D-based DILI assay; type: cell-based, human
Description: as §1, §2

[2] = combined with immunotherapies; cited from earlier work
spheroid PHHs = assay: Spheroid-based DILI assay; type: cell-based, human
Description: Culture of PHHs and HepatoMOS generation: The pooled donors and the individual donor of PHHs were purchased from BioIVT (www.bioivt.com). The PHHs used to compare the DILI predictivities of the spheroid method vs. HepatoMOS methods were accompanied with the InSphero Kit. Four different serum-free media options (InSphero, HCM™ Hepatocyte Culture Medium BulletKit™, BioIVT INVITROGRO HI Medium, and William E) were selected for the initial HepatoMOS culture in this study. PHHs were cultured either as a 2D monolayer on collagen-coated 96-well plates or encapsulated in MOS to create HepatoMOS at different cell densities. For the comparison of HepatoMOS with the dome culture methods, matched cell densities used for the dome and making HepatoMOS were used.
Given the high fidelity of cell viability, maintenance, and hepatic-specific function preservation in HepatoMOS culture, the potential application in predicting DILI effects during drug development was evaluated. The sensitivities and specificities of HepatoMOS were compared with two widely used approaches for DILI detection: i) 2D culture; and ii) spheroid PHHs.

## Cc1c(C)c2c(c(C)c1O)CCC(C)(COc1ccc(CC3SC(=O)NC3=O)cc1)O2 (centres unmarked) [Troglitazone]
HepatoMOS (PHHs)
  sensitivity of HepatoMOS-based versus spheroid-based DILI assay: better sensitivities

## O=c1[nH]c(=O)n([C@@H]2O[C@H](CO)[C@@H](O)[C@@H]2F)cc1I [Fialuridine]
3D Hepatocyte Spheroid
  IC50: 1.32 µM
HepG2
  IC50: > 200 µM

## O=C(O)Cc1ccccc1Nc1c(Cl)cccc1Cl [Diclofenac]
3D Hepatocyte Spheroid
  IC50: 66.1 µM
HepG2
  IC50: > 200 µM

## CS(=O)(=O)CCNCc1ccc(-c2ccc3ncnc(Nc4ccc(OCc5cccc(F)c5)c(Cl)c4)c3c2)o1 [Lapatinib]
3D Hepatocyte Spheroid
  IC50: 1.32 µM
HepG2
  IC50: > 200 µM

## CCc1c2c(nc3ccc(OC(=O)N4CCC(N5CCCCC5)CC4)cc13)-c1cc3c(c(=O)n1C2)COC(=O)[C@]3(O)CC [Irinotecan]
Tumor MOSs
  cell survival of tumor MOSs: lack of effect
tumor
  patient tumor response to treatment: no response

## Cc1ccc(C(=O)c2cc(O)c(O)c([N+](=O)[O-])c2)cc1 [Tolcapone]
3D Hepatocyte Spheroid
  IC50: 9.99 µM
HepG2
  IC50: 91.2 µM
HepatoMOS (PHHs)
  sensitivity of HepatoMOS-based versus spheroid-based DILI assay: better sensitivities

## O=C1[O][Pt]2([NH][C@@H]3CCCC[C@H]3[NH]2)[O]C1=O [Oxaliplatin]
Traditional cell line
  effect on traditional cell line: no effect
Tumor MOSs; listed as Oxalipalatin
  cell survival of tumor MOSs: no change in the percent survival
Tumor MOSs; listed as Oxalipalitin
  cell survival of tumor MOSs: significant decreases in cell survival
tumor; listed as Oxalipalatin
  patient tumor response to treatment: no response
tumor; listed as Oxalipalitin
  patient tumor response to treatment: responded to treatment

## COc1ccccc1Oc1c(NS(=O)(=O)c2ccc(C(C)(C)C)cc2)nc(-c2ncccn2)nc1OCCO [Bosentan]
3D Hepatocyte Spheroid
  IC50: 166 µM
HepG2
  IC50: > 200 µM

## CC(=O)Nc1ccc(O)cc1 [acetaminophen]
Mouse liver MOSs
  tissue in mouse liver MOSs versus control: smaller and contains many dead cells
Human liver MOSs
  tissue in human liver MOSs versus control: significant increase atypical tissue structures (arrows) and debris

## C=CC(=O)N1CCN(c2nc(=O)n(-c3c(C)ccnc3C(C)C)c3nc(-c4c(O)cccc4F)c(F)cc23)[C@@H](C)C1 [AMG-510]
[1]
  DILI concern in 2D-based DILI assay: failed to capture any DILI concern
[2]
  liver side effects in Phase 1 clinical trial: higher incidence of severe liver side effects
Spheroid PHHs
  DILI concern in spheroid-based DILI assay: failed to capture any DILI concern
HepatoMOS (PHHs); 10 donor batch
  IC50: < 10 µM
HepatoMOS (PHHs); single donor
  IC50: < 3.7 µM
